Our source for the IC50 values is ChEMBL document CHEMBL5729797, “Compounds having tetrahydroindolizine-1-carboxamide as BCL-2 inhibitors” (2023).

One test concerns the target Bcl-2-like protein 1 (Homo sapiens, UniProt Q07817). The test can be described thus: BCL-XL TR-FRET Assay: The following assay concentrations and times were used: 10.5 ng BCL-XL, 5 μl of 1:100 anti-His Tb-labeled donor, 5 μl of 1:100 Dye-labeled acceptor, 5 μl of 1:80 BCL-XL Peptide Ligand, and 2 μl of test compound, with 60 min incubation time. The results of the assay were read using a Clariostar (BMG Labtech) plate reader with the following parameters: TR FRET, 340ex/620 and 665em; 60 μsec Delay; and 500 μsec integration.

Test [1] deals with Apoptosis regulator Bcl-2 (Homo sapiens, UniProt P10415). Nature of the test: BCL-2 TR-FRET Assay: The following assay concentrations and times were used: 3 ng BCL-2, 5 μl of 1:100 anti-His Tb-labeled donor, 5 μl of 1:100 Dye-labeled acceptor, 5 μl of 1:40 BCL-2 Peptide Ligand, and 2 ul of test compound, with 60 min incubation time. The results of the assay were read using a Clariostar (BMG Labtech) plate reader with the following parameters: TR FRET, 340ex/620 and 665em; 60 μsec Delay; and 500 μsec integration. For orientation: Time-resolved FRET reads energy transfer from a long-lived donor to a nearby acceptor.
Chain of Apoptosis regulator Bcl-2 (P10415 whole entry): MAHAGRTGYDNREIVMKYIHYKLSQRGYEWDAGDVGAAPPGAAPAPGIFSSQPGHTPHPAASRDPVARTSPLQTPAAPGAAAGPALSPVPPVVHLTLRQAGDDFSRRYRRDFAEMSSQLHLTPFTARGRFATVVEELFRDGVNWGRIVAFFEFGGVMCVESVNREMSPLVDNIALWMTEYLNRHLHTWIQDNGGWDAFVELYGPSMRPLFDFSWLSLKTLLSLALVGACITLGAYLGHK

Chain of Bcl-2-like protein 1 (Q07817 whole entry): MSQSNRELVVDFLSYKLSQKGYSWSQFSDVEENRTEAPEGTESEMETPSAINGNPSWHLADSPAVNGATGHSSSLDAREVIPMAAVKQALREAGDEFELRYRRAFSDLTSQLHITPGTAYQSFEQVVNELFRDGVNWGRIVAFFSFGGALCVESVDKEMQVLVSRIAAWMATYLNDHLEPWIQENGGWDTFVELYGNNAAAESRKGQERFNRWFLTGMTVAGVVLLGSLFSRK

A word on the IC50: it is the midpoint of a concentration-inhibition curve. Higher therefore signals lower potency. Take `O=C(c1cc(-c2cc3c(cc2C(=O)N2Cc4ccccc4C[C@H]2CN2CCOCC2)OCO3)n2c1CCCC2)N(Cc1ccc(F)cc1)c1ccc(O)cc1`: the IC50 against Bcl-2-like protein 1 is greater than 4 µM.

For the molecule `O=C(c1cc(-c2cc3c(cc2C(=O)N2Cc4ccccc4C[C@H]2CN2CCOCC2)OCO3)n2c1CCCC2)N(Cc1ccccc1F)c1ccc(O)cc1`, the half-maximal inhibitory concentration (IC50) in test [1] is less than 0.005 µM; on Bcl-2-like protein 1 it was less than 2 µM.
